According to patent US20250332170A1, “VANDETANIB REDUCES INFLAMMATORY CYTOKINES AND AMELIORATES COVID-19” (Collaborations Pharmaceuticals, Inc., priority 2021, published 2025):
“Also recorded” adds a separate entry of the source. Read-outs that look alike come from different tables or passages of the source.

Legend:
[1] = test system: murine hepatitis virus (MHV); assay: microbe, parasite or virus in culture; type: cell-based
[2] = test system: SARS-CoV-2; assay: microbe, parasite or virus in culture; type: cell-based; conditions: Severe acute respiratory syndrome coronavirus 2, A549-ACE2
[3] = Cytotoxicity in Caco-2 cells (CC50); type: cell-based; conditions: human
[4] = test system: HCoV 229E; assay: HCoV 229E antiviral assay in Huh-7 cells; type: cell-based, human coronavirus 229E; conditions: 5 μM
[5] = test system: SARS-CoV-2; design: species or system K18-hACE2 mice; conditions: mouse, in vivo
[6] = in vivo; cited from earlier work
[7] = test system: SARS-CoV-2 (isolate USA WA1/2020)
[8] = test system: VEGF; conditions: by day 28, severe COVID-19; cited from earlier work
Sequence of VEGF (P15692 207-311 limits assumed): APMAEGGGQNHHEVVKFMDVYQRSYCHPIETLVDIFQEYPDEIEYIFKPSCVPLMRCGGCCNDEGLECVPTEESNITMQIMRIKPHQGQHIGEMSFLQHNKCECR

With `CN(C)C/C=C/C(=O)Nc1cc2c(Nc3ccc(F)c(Cl)c3)ncnc2cc1O[C@H]1CCOC1` [Afatinib] the inhibition at 10 µM ([1]; Murine coronavirus, DBT cells) was 98%.
Compound `CCc1cc2c(cc1N1CCC(N3CCOCC3)CC1)C(C)(C)c1[nH]c3cc(C#N)ccc3c1C2=O` [Alectinib] has an inhibition at 10 µM ([1]; Murine coronavirus, DBT cells) of 62%.
With `COc1cc(N2CCC(N3CCN(C)CC3)CC2)ccc1Nc1ncc(Cl)c(Nc2ccccc2P(C)(C)=O)n1` [Brigatinib] the inhibition at 10 µM ([1]; Murine coronavirus, DBT cells) was 39%.
Work on `COc1cc2nccc(Oc3ccc(NC(=O)C4(C(=O)Nc5ccc(F)cc5)CC4)cc3)c2cc1OC` [Cabozantinib] yielded an inhibition at 10 µM ([1]; Murine coronavirus, DBT cells) of 61%.
`CCS(=O)(=O)N1CCN(c2ccc(Nc3ncc(C(N)=O)c(NC4CC4)n3)cc2)CC1` [Cerdulatinib] showed an inhibition at 10 µM ([1]; Murine coronavirus, DBT cells) of 78%.
With `Cc1cc(Nc2ncc(Cl)c(Nc3ccccc3S(=O)(=O)C(C)C)n2)c(OC(C)C)cc1C1CCNCC1` [Ceritinib] the inhibition at 10 µM ([1]; Murine coronavirus, DBT cells) was 94%.
With `O=C(c1ccc(F)c(F)c1Nc1ccc(I)cc1F)N1CC(O)([C@@H]2CCCCN2)C1` [Cobimetinib] the inhibition at 10 µM ([1]; Murine coronavirus, DBT cells) was 82%.
With `CC(C)(C)c1nc(-c2cccc(NS(=O)(=O)c3c(F)cccc3F)c2F)c(-c2ccnc(N)n2)s1` [Dabrafenib] the inhibition at 10 µM ([1]; Murine coronavirus, DBT cells) was -12%.
In the case of `Cc1nc(Nc2ncc(C(=O)Nc3c(C)cccc3Cl)s2)cc(N2CCN(CCO)CC2)n1` [Dasatinib], the inhibition at 10 µM ([1]; Murine coronavirus, DBT cells) is reported as 65%.
For `CNC(=O)c1ccc(Nc2ncc(C(F)(F)F)c(NCc3nccnc3N(C)S(C)(=O)=O)n2)cc1` [Defactinib], the inhibition at 10 µM ([1]; Murine coronavirus, DBT cells) was 36%.
In the case of `CN1CCN(c2ccc(C(=O)Nc3n[nH]c4ccc(Cc5cc(F)cc(F)c5)cc34)c(NC3CCOCC3)c2)CC1` [Entrectinib], the inhibition at 10 µM ([1]; Murine coronavirus, DBT cells) is reported as 97%, the IC50 [2] is reported as 1970 nM and the CC50 [3] is reported as 3600 nM. The “Reduction of HCoV-229E titer” value [4] was 2.7 logTCID50/mL.
For `C#Cc1cccc(Nc2ncnc3cc(OCCOC)c(OCCOC)cc23)c1` [Erlotinib], the inhibition at 10 µM ([1]; Murine coronavirus, DBT cells) was 32%.
Work on `CO[C@H]1C[C@@H]2CC[C@@H](C)[C@@](O)(O2)C(=O)C(=O)N2CCCC[C@H]2C(=O)O[C@H]([C@H](C)C[C@@H]2CC[C@@H](OCCO)[C@H](OC)C2)CC(=O)[C@H](C)/C=C(\C)[C@@H](O)[C@@H](OC)C(=O)[C@H](C)C[C@H](C)/C=C/C=C/C=C/1C` [Everolimus] yielded an inhibition at 10 µM ([1]; Murine coronavirus, DBT cells) of 46%.
For `Cc1ncc(NC(=O)c2ccc(CN3CCN(C)CC3)c(C(F)(F)F)c2)cc1Nc1nccc(-c2cccnc2)n1` [Flumatinib], the inhibition at 10 µM ([1]; Murine coronavirus, DBT cells) was 83%.
With `Cc1cccc(-c2nn3c(c2-c2ccnc4ccc(C(N)=O)cc24)CCC3)n1` [Galunisertib] the inhibition at 10 µM ([1]; Murine coronavirus, DBT cells) was 26%.
In the case of `C=CC(=O)N1CCC[C@@H](n2nc(-c3ccc(Oc4ccccc4)cc3)c3c(N)ncnc32)C1` [Ibrutinib], the inhibition at 10 µM ([1]; Murine coronavirus, DBT cells) is reported as -69%.
In the case of `CC[C@H](Nc1ncnc2nc[nH]c12)c1nc2cccc(F)c2c(=O)n1-c1ccccc1` [Idelalisib], the inhibition at 10 µM ([1]; Murine coronavirus, DBT cells) is reported as 17%.
`Cc1ccc(NC(=O)c2ccc(CN3CCN(C)CC3)cc2)cc1Nc1nccc(-c2cccnc2)n1` [Imatinib] showed an inhibition at 10 µM ([1]; Murine coronavirus, DBT cells) of 81%.
`CS(=O)(=O)CCNCc1ccc(-c2ccc3ncnc(Nc4ccc(OCc5cccc(F)c5)c(Cl)c4)c3c2)o1` [Lapatinib] gave an inhibition at 10 µM ([1]; Murine coronavirus, DBT cells) of 88%.
Work on `C[C@]1(O)C[C@@H](c2nc(-c3ccc4ccc(-c5ccccc5)nc4c3)c3c(N)nccn32)C1` [Linsitinib] yielded an inhibition at 10 µM ([1]; Murine coronavirus, DBT cells) of 46%.
Compound `COc1cc2nccc(Oc3ccc(NC(=O)NC4CC4)c(Cl)c3)c2cc1C(N)=O` [Lonvatinib] has an inhibition at 10 µM ([1]; Murine coronavirus, DBT cells) of -12%.
Compound `Cc1cn(-c2cc(NC(=O)c3ccc(C)c(Nc4nccc(-c5cccnc5)n4)c3)cc(C(F)(F)F)c2)cn1` [Nilotinib] has an inhibition at 10 µM ([1]; Murine coronavirus, DBT cells) of 66%.
Compound `COC(=O)c1ccc2c(c1)NC(=O)/C2=C(\Nc1ccc(N(C)C(=O)CN2CCN(C)CC2)cc1)c1ccccc1` [Nintedanib] has an inhibition at 10 µM ([1]; Murine coronavirus, DBT cells) of 95%.
Compound `C=CC(=O)Nc1cc(Nc2nccc(-c3cn(C)c4ccccc34)n2)c(OC)cc1N(C)CCN(C)C` [Osimertinib] has an inhibition at 10 µM ([1]; Murine coronavirus, DBT cells) of 98%.
For `CC(=O)c1c(C)c2cnc(Nc3ccc(N4CCNCC4)cn3)nc2n(C2CCCC2)c1=O` [Palbociclib], the inhibition at 10 µM ([1]; Murine coronavirus, DBT cells) was 5%.
For `Cc1ccc(Nc2nccc(N(C)c3ccc4c(C)n(C)nc4c3)n2)cc1S(N)(=O)=O` [Pazopanib], the inhibition at 10 µM ([1]; Murine coronavirus, DBT cells) was 20%.
`Cc1ccc(C(=O)Nc2ccc(CN3CCN(C)CC3)c(C(F)(F)F)c2)cc1C#Cc1cnc2cccnn12` [Ponatinib] gave an inhibition at 10 µM ([1]; Murine coronavirus, DBT cells) of 98%.
With `CNC(=O)c1cc(Oc2ccc(NC(=O)Nc3ccc(Cl)c(C(F)(F)F)c3)c(F)c2)ccn1` [Regorafenib] the inhibition at 10 µM ([1]; Murine coronavirus, DBT cells) was 65%.
For `CN(C)C(=O)c1cc2cnc(Nc3ccc(N4CCNCC4)cn3)nc2n1C1CCCC1` [Ribociclib], the inhibition at 10 µM ([1]; Murine coronavirus, DBT cells) was -4%.
In the case of `CNCc1ccc(-c2[nH]c3cc(F)cc4c3c2CCNC4=O)cc1` [Rucaparib], the inhibition at 10 µM ([1]; Murine coronavirus, DBT cells) is reported as -48%.
`N#CC[C@H](C1CCCC1)n1cc(-c2ncnc3[nH]ccc23)cn1` [Ruxolitinib] showed an inhibition at 10 µM ([1]; Murine coronavirus, DBT cells) of -46%.
`CNC(=O)c1cc(Oc2ccc(NC(=O)Nc3ccc(Cl)c(C(F)(F)F)c3)cc2)ccn1` [Sorafenib] gave an inhibition at 10 µM ([1]; Murine coronavirus, DBT cells) of 74%.
In the case of `CCN(CC)CCNC(=O)c1c(C)[nH]c(/C=C2\C(=O)Nc3ccc(F)cc32)c1C` [Sunitinib], the inhibition at 10 µM ([1]; Murine coronavirus, DBT cells) is reported as 96%.
For `CO[C@H]1C[C@@H]2CC[C@@H](C)[C@@](O)(O2)C(=O)C(=O)N2CCCC[C@H]2C(=O)O[C@H]([C@H](C)C[C@@H]2CC[C@@H](OC(=O)C(C)(CO)CO)[C@H](OC)C2)CC(=O)[C@H](C)/C=C(\C)[C@@H](O)[C@@H](OC)C(=O)[C@H](C)C[C@H](C)/C=C/C=C/C=C/1C` [Temsirolimus], the inhibition at 10 µM ([1]; Murine coronavirus, DBT cells) was 4%.
`COc1cc2nccc(Oc3ccc(NC(=O)Nc4cc(C)on4)c(Cl)c3)c2cc1OC` [Tivozanib] showed an inhibition at 10 µM ([1]; Murine coronavirus, DBT cells) of 29%.
`C[C@@H]1CCN(C(=O)CC#N)C[C@@H]1N(C)c1ncnc2[nH]ccc12` [Tofacitinib] showed an inhibition at 10 µM ([1]; Murine coronavirus, DBT cells) of -7%.
Work on `CC(=O)Nc1cccc(-n2c(=O)n(C3CC3)c(=O)c3c(Nc4ccc(I)cc4F)n(C)c(=O)c(C)c32)c1` [Trametinib] yielded an inhibition at 10 µM ([1]; Murine coronavirus, DBT cells) of -40%.
`COc1cc2c(Nc3ccc(Br)cc3F)ncnc2cc1OCC1CCN(C)CC1` [Vandetanib] showed an inhibition at 10 µM ([1]; Murine coronavirus, DBT cells) of 97%, an IC50 ([1]; Murine coronavirus, DBT cells, FIG. 5, read-out: IC50 against MHV) of 1600 nM and an IC50 [2] of 790 nM. The CC50 [3] was 4100 nM, the “Reduction of HCoV-229E titer” value [4] was over 3 and the “Lung CCL2 level” value [5] was “significantly reduced; also recorded: decreased”. For the same compound, the “Lung CCL3 level” value [5] was “significantly reduced; also recorded: decreased”, the “Lung CCL4 level” value [5] was “reduced; also recorded: decreased” and the “Lung IL-6 level” value [5] was “statistically significantly reduced”. The “Lung IL-10 level” value [5] was “statistically significantly reduced”, the “Lung TNF-α level” value [5] was “statistically significantly reduced” and the “Lung pathology / inflammatory cell infiltrates” value [5] was “mitigated inflammatory cell infiltrates”. For the same compound, the “Lung viral load (viral RNA, RT-PCR)” value [5] was “did not reduce”, the “Lung IFN-1β level” value ([5]; listed as vandetanib) was “restored the levels; also recorded: rescued” and the “Lung IL-6 level” value ([5]; listed as vandetanib) was “reduces”. The “Lung IL-10 level” value ([5]; listed as vandetanib) was “reduces”, the “Lung TNF-α level” value ([5]; listed as vandetanib) was “reduces” and the “Lung pathology / inflammatory cell infiltrates” value ([5]; listed as vandetanib) was “clear protective effect; also recorded: significant treatment effect with mild infiltration”. The “Lung viral load (viral RNA, RT-PCR)” value ([5]; listed as vandetanib) was “no significant reduction; also recorded: not observed”, the “Absorption from the gut” value [6] was “well absorbed” and the Average half-life [6] was 19 days. The “Excreted via the feces” value [6] was 44%, the “Excreted via the urine” value [6] was 25% and the Protein-bound [6] was 92-94%. The Terminal excretion half-life [6] was 20 days and the “Time to peak blood plasma concentrations” value [6] was 4 to 10 h.
Compound `CCCS(=O)(=O)Nc1ccc(F)c(C(=O)c2c[nH]c3ncc(-c4ccc(Cl)cc4)cc23)c1F` [Vemourafenib] has an inhibition at 10 µM ([1]; Murine coronavirus, DBT cells) of -3%.
`CCC(CC)COC(=O)[C@H](C)N[P@](=O)(OC[C@H]1O[C@@](C#N)(c2ccc3c(N)ncnn23)[C@H](O)[C@@H]1O)Oc1ccccc1` [remdesivir] showed an IC50 [2] of 110 nM.
In the case of Alisertib, the “% Inhibition MHV-DBT cells 10 μM” value [1] is reported as 19%.
In the case of Crizotinib, the “% Inhibition MHV-DBT cells 10 μM” value [1] is reported as 96% and the “Calu-3 result (toxicity)” value [7] is reported as “toxic”.
For bevacizumab, the Patients discharged [8] is given as 65%, the “Patients with improvement in oxygen-support status” value [8] is given as 92% and the “Patients with worsened oxygen-support status or died” value [8] is given as “none”.
